Several values for one entry are separate records, joined by “and”; a condition that tells them apart may be missing. Equal entries are not always repeated.
Tests used:
CYP3A4 = conditions: earlier study; cited from earlier work
[1] = GA glucuronidation kinetics in human intestinal microsomes; format: in vitro ADME; conditions: for microsomal CLint: human intestinal microsomes
[2] = rats; cited from earlier work
[3] = target: T1, recombinant human UGT2B15 (Homo sapiens, UniProt P54855); experiment: GA glucuronidation by recombinant UGT2B15; format: in vitro ADME; conditions: UGT2B15, whole range of substrate concentrations
T1 sequence (P54855 24-530): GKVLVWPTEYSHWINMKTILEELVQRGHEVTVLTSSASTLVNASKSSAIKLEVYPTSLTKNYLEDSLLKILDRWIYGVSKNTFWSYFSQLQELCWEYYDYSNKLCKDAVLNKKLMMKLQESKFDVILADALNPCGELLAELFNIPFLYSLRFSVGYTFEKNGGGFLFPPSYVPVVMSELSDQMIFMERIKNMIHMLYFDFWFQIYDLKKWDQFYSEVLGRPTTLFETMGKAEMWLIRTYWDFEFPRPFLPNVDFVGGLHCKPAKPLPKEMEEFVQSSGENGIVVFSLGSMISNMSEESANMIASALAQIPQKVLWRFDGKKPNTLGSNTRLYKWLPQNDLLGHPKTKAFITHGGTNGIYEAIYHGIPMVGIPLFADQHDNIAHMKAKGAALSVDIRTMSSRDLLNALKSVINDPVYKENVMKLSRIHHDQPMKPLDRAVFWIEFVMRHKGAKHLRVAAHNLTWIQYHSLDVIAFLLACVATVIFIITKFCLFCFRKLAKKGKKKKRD

UGT1A10 = target: T2, UGT1A10 (Homo sapiens, UniProt Q9HAW8); experiment: GA glucuronidation kinetics by recombinant UGT1A10; format: in vitro ADME
T2 sequence (Q9HAW8 26-530): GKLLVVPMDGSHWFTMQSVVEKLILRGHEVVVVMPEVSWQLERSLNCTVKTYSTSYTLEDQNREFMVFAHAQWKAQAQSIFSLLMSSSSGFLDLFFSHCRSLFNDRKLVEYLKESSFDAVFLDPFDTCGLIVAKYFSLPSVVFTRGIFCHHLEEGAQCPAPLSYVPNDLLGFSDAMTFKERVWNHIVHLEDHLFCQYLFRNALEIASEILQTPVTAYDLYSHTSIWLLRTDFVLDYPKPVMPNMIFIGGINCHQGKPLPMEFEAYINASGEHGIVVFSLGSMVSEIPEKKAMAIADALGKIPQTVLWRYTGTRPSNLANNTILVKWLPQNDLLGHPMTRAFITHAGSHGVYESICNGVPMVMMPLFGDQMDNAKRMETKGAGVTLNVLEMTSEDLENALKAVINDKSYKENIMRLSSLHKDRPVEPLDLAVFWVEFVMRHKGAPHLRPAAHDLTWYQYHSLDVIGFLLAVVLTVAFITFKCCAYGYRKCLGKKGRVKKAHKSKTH

UGT1A8 = target: T3, UGT1A8 (Homo sapiens, UniProt Q9HAW9); experiment: GA glucuronidation by recombinant UGT1A8; format: in vitro ADME
T3 sequence (Q9HAW9 26-530): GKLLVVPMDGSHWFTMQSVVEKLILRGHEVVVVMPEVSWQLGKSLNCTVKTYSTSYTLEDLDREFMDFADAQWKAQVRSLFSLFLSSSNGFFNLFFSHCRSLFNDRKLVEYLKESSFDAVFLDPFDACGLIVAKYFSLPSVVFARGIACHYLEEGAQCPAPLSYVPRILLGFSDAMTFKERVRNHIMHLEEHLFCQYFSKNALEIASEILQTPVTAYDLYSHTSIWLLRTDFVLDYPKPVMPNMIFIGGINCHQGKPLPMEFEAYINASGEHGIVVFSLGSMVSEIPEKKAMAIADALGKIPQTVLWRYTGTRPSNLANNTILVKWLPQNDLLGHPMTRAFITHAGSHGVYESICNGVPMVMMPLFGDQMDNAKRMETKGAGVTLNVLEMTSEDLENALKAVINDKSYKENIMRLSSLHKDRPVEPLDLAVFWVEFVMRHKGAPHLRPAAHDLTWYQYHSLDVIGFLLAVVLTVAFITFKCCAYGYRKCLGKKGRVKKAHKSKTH

UGT1A1 = target: T4, UGT1A1 (Homo sapiens, UniProt P22309); experiment: GA glucuronidation kinetics by recombinant UGT1A1; format: in vitro ADME; conditions: recombinant human UGT1A1, pH 7.4, Clint
T4 sequence (P22309 26-533): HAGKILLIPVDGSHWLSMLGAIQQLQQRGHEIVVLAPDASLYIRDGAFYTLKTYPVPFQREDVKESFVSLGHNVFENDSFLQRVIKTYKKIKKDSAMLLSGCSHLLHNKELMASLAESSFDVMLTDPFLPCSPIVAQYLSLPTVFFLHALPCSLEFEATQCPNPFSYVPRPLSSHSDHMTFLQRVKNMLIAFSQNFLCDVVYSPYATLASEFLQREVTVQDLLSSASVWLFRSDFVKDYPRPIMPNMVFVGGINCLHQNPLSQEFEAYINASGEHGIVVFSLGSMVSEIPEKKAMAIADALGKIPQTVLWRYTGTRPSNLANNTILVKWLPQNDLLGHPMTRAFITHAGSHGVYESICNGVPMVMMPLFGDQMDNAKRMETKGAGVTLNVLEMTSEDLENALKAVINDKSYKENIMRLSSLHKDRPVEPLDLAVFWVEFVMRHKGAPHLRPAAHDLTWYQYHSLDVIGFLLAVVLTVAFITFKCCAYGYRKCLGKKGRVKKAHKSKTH

CC1(C)C=Cc2c(ccc3c2OC[C@@H](c2ccc(O)cc2O)C3)O1 [GA, glabridin]
inhibition of CYP3A4 (CYP3A4): mechanism-based inhibitor | Clint of HIM relative to HLM ([1]; GA glucuronidation, Table 2): more than 100 fold | Vmax ([1]; HIM, M2 formation): 16.7 ± 7.4 nmol/min/mg | microsomal CLint ([1]; both, human, pH 7.4, Clint, HIM, M2 formation): 2010 µL/min/mg | microsomal CLint ([1]; both, human, pH 7.4, Clint, HIM, M2 formation (text)): 2000 µL/min/mg | microsomal CLint ([1]; both, human, pH 7.4, Cltotal, HIM): 2010 µL/min/mg | Km at 20 min ([1]; both, human, intestinal microsomes, pH 7.4): 8.3 ± 3.5 µM | oral availability [2]: about 7.5 % of the oral dose | GA glucuronidation activity [3]: < 0.04 nmol/min/mg | KSI (UGT1A10; UGT1A10, M2 formation): 36 ± 11 µM | Vmax (UGT1A10; UGT1A10, M2 formation): 0.50 ± 0.10 nmol/min/mg and 0.5 ± 0.1 nmol/min/mg | microsomal CLint (UGT1A10; human, recombinant UGT1A10, pH 7.4): 18 µL/min/mg | catalytic activity of UGT1A8 relative to other isoforms (UGT1A8; 2 µM GA, 0.1 mg/mL recombinant UGTs, 60 min): more than 5 fold | KSI (UGT1A8; UGT1A8, M2 formation): 1.7 ± 0.4 µM | microsomal CLint (UGT1A8; human, recombinant UGT1A8, pH 7.4): 172 µL/min/mg | Clint of UGT1A8 relative to other isoforms (UGT1A8; recombinant UGTs): more than 5 fold | microsomal CLint (UGT1A1; UGT1A1, M1 formation): 22 µL/min/mg | microsomal CLint (UGT1A1; UGT1A1, M2 formation): 5 µL/min/mg
